From US7892350B2, “Sacrificial agents for fly ash concrete” (Boral Material Technologies Inc., priority 2003, dated 2011)
Where two headings read alike, the source gives them in different places.

Key:
[1] = Paste air entrainment, Maximum air protocol; details: for Average of air entrained at 66 min: over the fly ash:PCA pastes of Table 9
Procedure: Preparation of pastes: Pastes were prepared by pouring 400 g of cementitious powder in the 350-400 g of solution (water and additives) in a vessel (8.4 cm dia,×14.5 cm height) while gently stirring with a spatula; the exact quantity of water depends on the selected W/B ratio (see below); rapid hand mixing was continued for 1 minute, followed by intense stirring at 25° C. during 2 min using a hand-held mixer (BRAUN model MR400). The level of air entrained is dependent on the mode of utilisation of the mixer, namely the height of the mixer from the bottom of the vessel and the length of the mixing stroke; the following protocols were adopted.
Fluidity measurements: For all air entrainment measurements, the initial fluidity of the paste (without additives) was controlled using the ‘mini-slump’ procedure widely used for paste and grouts. In this protocol, a portion of the paste was transferred into the min-slump cone (a 2¼″ high, 1½″ bottom diameter, ¾″ top diameter cone); excess paste was skimmed-off with a straight; the cone was then raised and the spread diameter of the paste was recorded (average of two measurements). The fluidity is measured at 10 minutes after mixing. The paste is returned to the batch and reserved for subsequent AE measurements. The fluidity of the paste (without SA and AEA) is adjusted by changing the amount of water (water/cementitious ratio) which yields a spread diameter of 115±5 mm. The latter is monitored regularly.
Air entrainment measurements: For air entrainment measurements, a portion of the paste was transferred to overfill a Plexiglas cylinder (3¾ inches height, 2 inches interior diameter), which was then levelled flush to the top of the cylinder with a straight edge. The mass of the filled cylinder, minus the weight of the empty cylinder, is then recorded and used to calculate the amount of air according to the following formula: […]
This procedure was carried out at three times at 30 min. intervals (6, 36 and 66 min); the paste was let to stand at rest between measurements, and was stirred gently by hand for one minute prior to the subsequent air entrainment measurements.
Other combinations of air entrainment agents and sacrificial agents were prepared as stock solutions following the procedure outlined above, adjusting the weights of the various components to achieve the desired component ratios.

[2] = Second sacrificial agent testing protocol: paste air measurements with DDBS (0.0125 wt %) and rating; for Overall performance rating (second protocol rating): key: 0: Fail; 1: Poor; 2: Good; 3: Preferred; 4: Most preferred; for SA Rating (0-4): key: 0: Fail; 1: Poor; 2: Good; 3: Preferred; 4: Most preferred
How it was run: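 Air entrainment was measured in cement pastes of fixed composition and fluidity. The candidate agent was tested alone at 0.1 wt % in a cement-only paste. It was also tested at 0.05 and 0.1 wt % in a fly ash (B1)-cement paste with DDBS, where air recovery was calculated against the same paste without agent.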

[3] = 50:50 fly ash B1 (LOI 4.36%):PCA paste, Air 30 (0.0125 wt %)/ND/X=1/4/4, X = the labelled SA
[4] = 50:50 fly ash C1 (LOI 1.62%):PCA paste, Air 30 (0.0125 wt %)/ND/X=1/4/4, X = the labelled SA
[5] = 50:50 fly ash D (LOI […]):PCA paste, Air 30 (0.0125 wt %)/ND/X=1/4/4, X = the labelled SA
[6] = 50:50 fly ash M1 (LOI […]):PCA paste, Air 30 (0.0125 wt %)/ND/X=1/4/4, X = the labelled SA
[7] = 50:50 fly ash M2 (LOI 5.34%):PCA paste, Air 30 (0.0125 wt %)/ND/X=1/4/4, X = the labelled SA
[8] = 50:50 fly ash M3 (LOI 11.33%):PCA paste, Air 30 (0.0125 wt %)/ND/X=1/4/4, X = the labelled SA
[9] = 50:50 fly ash R (LOI […]):PCA paste, Air 30 (0.0125 wt %)/ND/X=1/4/4, X = the labelled SA
[10] = PCA paste, no fly ash, Air 30 (0.0125 wt %)/ND/X=1/4/4, X = the labelled SA
[11] = Air 30 (0.0125 wt %)/ND/X=1/4/4, X = the labelled SA
[12] = Portland cement paste (PCA), […]
[13] = sacrificial agent overall rating index
[14] = sum of ratings of air entrainment recovery by 0.05% and 0.1% SA, DDBS 0.0125 wt %, 50:50 B1 fly ash:cement paste

OCC(O)CO [Glycerol]
Air entrained at 66 min [1, 3]: 12 vol % | Air entrained at 66 min [1, 4]: 18 vol % | Air entrained at 66 min [1, 5]: 18 vol % | Air entrained at 66 min [1, 6]: 16 vol % | Air entrained at 66 min [1, 7]: 7 vol % | Air entrained at 66 min [1, 8]: 11 vol % | Air entrained at 66 min [1, 9]: 18 vol % | Air entrained at 66 min [1, 10]: 16 vol % | Average of air entrained at 66 min [1, 11]: 14% | Overall performance rating (second protocol rating) [2]: 2 | B1 + 0.0125% DDBS + 0.1% SA (air entrainment) ([2]; B1 FA/cement paste, […]): 2.3 | PCA + 0.1% SA (level of air entrainment by the candidate sacrificial agent) [2, 12]: 0.1 | SA Rating (0-4) [2, 13]: 2

Polyethylene glycol (Molecular weight = 200) [PEG 200]
Air entrained at 66 min [1, 3]: 14 vol % | Air entrained at 66 min [1, 5]: 20 vol % | Air entrained at 66 min [1, 6]: 19 vol % | Air entrained at 66 min [1, 7]: 9 vol % | Air entrained at 66 min [1, 9]: 18 vol % | Air entrained at 66 min [1, 10]: 18 vol % | Average of air entrained at 66 min [1, 11]: 16% | Overall performance rating (second protocol rating) [2, 14]: 3

COCCO [EGME, Ethylene glycol methyl ether]
Air entrained at 66 min [1, 3]: 12 vol % | Air entrained at 66 min [1, 4]: 20 vol % | Air entrained at 66 min [1, 5]: 20 vol % | Air entrained at 66 min [1, 6]: 17 vol % | Air entrained at 66 min [1, 7]: 8 vol % | Air entrained at 66 min [1, 8]: 12 vol % | Air entrained at 66 min [1, 9]: 17 vol % | Air entrained at 66 min [1, 10]: 18 vol % | Average of air entrained at 66 min [1, 11]: 15% | B1 + 0.0125% DDBS + 0.05% SA (air entrainment) [2]: 3.3 | B1 + 0.0125% DDBS + 0.1% SA (air entrainment) [2]: 4.3 | Overall performance rating (second protocol rating) [2]: 1 | PCA + 0.1% SA (level of air entrainment by the candidate sacrificial agent) [2]: 0.7 | SA Rating (0-4) [2]: 1

CC(O)C(O)c1ccccc1 (centres unmarked) [1-Phe 2-Pro, 1-Phenyl 2-propylene glycol]
Air entrained at 66 min [1, 3]: 13 vol % | Air entrained at 66 min [1, 4]: 18 vol % | Air entrained at 66 min [1, 5]: 18 vol % | Air entrained at 66 min [1, 6]: 16 vol % | Air entrained at 66 min [1, 7]: 9 vol % | Air entrained at 66 min [1, 8]: 13 vol % | Air entrained at 66 min [1, 9]: 16 vol % | Air entrained at 66 min [1, 10]: 17 vol % | Average of air entrained at 66 min [1, 11]: 15%

Sodium di-butyl naphthalene sulfonate [DBNS]
Air entrained at 66 min ([1]; 50:50 fly ash B1 (LOI 4.36%):PCA paste, Air 30 (0.0125 wt %)/X/ButOH=1/4/4, X = the labelled sulfonated SA): 11 vol % | Air entrained at 66 min ([1]; 50:50 fly ash D (LOI […]):PCA paste, Air 30 (0.0125 wt %)/X/ButOH=1/4/4, X = the labelled sulfonated SA): 20 vol % | Air entrained at 66 min ([1]; 50:50 fly ash M2 (LOI 5.34%):PCA paste, Air 30 (0.0125 wt %)/X/ButOH=1/4/4, X = the labelled sulfonated SA): 7 vol % | Air entrained at 66 min ([1]; PCA paste, no fly ash, Air 30 (0.0125 wt %)/X/ButOH=1/4/4, X = the labelled sulfonated SA): 17 vol %

Polyethylene glycol (Molecular weight = 1500) [PEG 1500]
Air entrained at 66 min ([1]; 50:50 fly ash B1 (LOI 4.36%):PCA paste, Air 30 (0.0125%)/NS/X=1/4/4, X = the labelled SA): 8 vol % | Air entrained at 66 min [1, 3]: 14 vol % | Air entrained at 66 min ([1]; 50:50 fly ash D (LOI […]):PCA paste, Air 30 (0.0125%)/NS/X=1/4/4, X = the labelled SA): 19 vol % | Air entrained at 66 min [1, 5]: 21 vol % | Air entrained at 66 min ([1]; 50:50 fly ash M1 (LOI […]):PCA paste, Air 30 (0.0125%)/NS/X=1/4/4, X = the labelled SA): 18 vol % | Air entrained at 66 min [1, 6]: 18 vol % | Air entrained at 66 min ([1]; 50:50 fly ash M2 (LOI 5.34%):PCA paste, Air 30 (0.0125%)/NS/X=1/4/4, X = the labelled SA): 5 vol % | Air entrained at 66 min [1, 7]: 9 vol % | Air entrained at 66 min ([1]; 50:50 fly ash R (LOI […]):PCA paste, Air 30 (0.0125%)/NS/X=1/4/4, X = the labelled SA): 16 vol % | Air entrained at 66 min [1, 9]: 18 vol % | Air entrained at 66 min ([1]; PCA paste, no fly ash, Air 30 (0.0125%)/NS/X=1/4/4, X = the labelled SA): 11 vol % | Air entrained at 66 min [1, 10]: 20 vol % | Average of air entrained at 66 min [1, 11]: 16%

CCCCOCCOCCO [Di-EGBE, Di-ethylene glycol butyl ether]
Air entrained at 66 min [1, 3]: 16 vol % | Air entrained at 66 min [1, 4]: 21 vol % | Air entrained at 66 min [1, 5]: 24 vol % | Air entrained at 66 min [1, 6]: 21 vol % | Air entrained at 66 min [1, 7]: 11 vol % | Air entrained at 66 min [1, 8]: 17 vol % | Air entrained at 66 min [1, 9]: 22 vol % | Air entrained at 66 min [1, 10]: 22 vol % | Average of air entrained at 66 min [1, 11]: 19% | Overall performance rating (second protocol rating) [2]: 4 | B1 + 0.0125% DDBS + 0.05% SA (air entrainment) ([2]; B1 FA/cement paste, […]): 9.9 | B1 + 0.0125% DDBS + 0.1% SA (air entrainment) ([2]; B1 FA/cement paste, […]): 11.2 | PCA + 0.1% SA (level of air entrainment by the candidate sacrificial agent) [2, 12]: 2.7 | SA Rating (0-4) [2, 13]: 4

COC(C)COC(C)CO (centres unmarked) [Di-PGME, Di-propylene glycol methyl ether]
Air entrained at 66 min [1, 3]: 16 vol % | Air entrained at 66 min [1, 4]: 21 vol % | Air entrained at 66 min [1, 5]: 25 vol % | Air entrained at 66 min [1, 6]: 20 vol % | Air entrained at 66 min [1, 7]: 11 vol % | Air entrained at 66 min [1, 8]: 15 vol % | Air entrained at 66 min [1, 9]: 20 vol % | Air entrained at 66 min [1, 10]: 23 vol % | Average of air entrained at 66 min [1, 11]: 18% | B1 + 0.0125% DDBS + 0.05% SA (air entrainment) ([2]; B1 FA/cement paste, 0.0125 wt % DDBS, 0.05 wt % SA): 8.7 | B1 + 0.0125% DDBS + 0.1% SA (air entrainment) ([2]; B1 FA/cement paste, 0.0125 wt % DDBS, 0.10 wt % SA): 9.7 | PCA + 0.1% SA (level of air entrainment by the candidate sacrificial agent) [2, 12]: 1.1 | SA Rating (0-4) [2, 13]: 4 | Overall performance rating (second protocol rating) [2, 14]: 4
